Measurements as given in patent US7205301B2, “Microbiocidal N-phenyl-n-[4-(4-pyridyl)-2-pyrimidin-2-yl]-amine derivatives” (Syngenta Crop Protection, Inc., priority 2001, dated 2007).

How the values were obtained:
Format in all cases: in vivo
Botrytis cinerea [1] = test: Example B-7: Botrytis cinerea / grape (Botrytis on grapes); details: 72 h, 0.02% active substance, spray, grape seedlings cv. Gutedel, inoculated two days after application, assessed after 3 days incubation, read-out: control of the fungal infection
Description: Botrytis cinerea/Grape (Botrytis on Grapes) 5 week old grape seedlings cv. Gutedel are treated with the formulated test compound (0.02% active substance) in a spray chamber. Two days after application grape plants are inoculated by spraying a spore suspension (1.5×10^5 conidia/ml) on the test plants. After an incubation period of 3 days at +21° C. and 95% r. h. in a greenhouse the disease incidence is assessed.

Botrytis cinerea [2] = test: Example B-8: effect against Botrytis cinerea / tomato (Botrytis on tomatoes); details: 96 h, 0.02% active substance, spray, tomato cv. Roter Gnom, inoculated two days after application, assessed after 4 days incubation, read-out: control of the fungal infection
Description: Effect Against Botrytis cinerea/Tomato (Botrytis on Tomatoes) 4 week old tomato plants cv. Roter Gnom are treated with the formulated test compound 0.02% active substance) in a spray chamber. Two days after application tomato plants are inoculated by spraying a spore suspension (1×10^5 conidia/ml) on the test plants. After an incubation period of 4 days at +20° C. and 95% r. h. in a greenhouse the disease incidence is assessed.

[3] = system: Pyrenophora teres (Helminthosorium); test: Example B-10: effect against Pyrenophora teres (Helminthosorium) / barley (net blotch on barley); details: 48 h, 0.02% active substance, spray, barley cv. Regina, inoculated two days after application, assessed after 2 days incubation, read-out: control of the fungal infection
Description: Effect Against Pyrenophora teres (Helminthosorium)/Barley (Net Blotch on Barley) 1 week old barley plants cv. Regina are treated with a formulated test compound (0.02% active substance) in a spray chamber. Two days. after application barley plants are inoculated by spraying a spore suspension (3×10^4 conidia/ml) on the test plants. After an incubation period of 2 days at +20° C. and 95% r.h. the disease incidence is assessed.

Septoria nodorum = test: Example B-12: effect against Septoria nodorum / wheat (Septoria leaf spot on wheat); details: Parastagonospora nodorum, 192 h; 0.02% active substance, spray; wheat cv. Arina; inoculated one day after application; assessed 8 days after inoculation; read-out: control of the fungal infection
Description: Effect Against Septoria nodorum/Wheat (Septoria Leaf Spot on Wheat) 1 week old wheat plants cv. Arina are treated with a formulated test compound (0.02% active substance) in a spray chamber. One day after application wheat plants are inoculated by spraying a spore suspension (6×10^5 conidia/ml) on the test plants. After an incubation period of 1 day at +22° C. and 95% r.h. plants are kept for 7 days at +22° C. and 60% r.h. in a greenhouse. The disease incidence is assessed 8 days after inoculation.

For `CC1=NN(c2cc(-c3ccnc(Nc4cccc(Cl)c4)n3)ccn2)C(=O)C1(C)C` [1.01/028, 2-{4-[2-(3-Chloro-phenylamino)-pyrimidin-4-yl]-pyridin-2-yl}-4,4,5-trimethyl-2,4-dihydro-pyrazol-3-one], the pest or weed control at 0.02 % strength (Botrytis cinerea [1]) was over 70%, the pest or weed control at 0.02 % strength (Botrytis cinerea [2]) was over 70% and the pest or weed control at 0.02 % strength [3] was over 70%. It also gave a pest or weed control at 0.02 % strength (Septoria nodorum) of over 70%.
`CCC1(C)C(=O)N(c2cc(-c3ccnc(Nc4cccc(Cl)c4)n3)ccn2)N=C1C` (stereo not shown) [1.03/028, 2-{4-[2-(3-Chloro-phenylamino)-pyrimidin-4-yl]-pyridin-2-yl}-4-ethyl-4,5-dimethyl-2,4-dihydro-pyrazol-3-one] showed a pest or weed control at 0.02 % strength (Botrytis cinerea [1]) of over 70%, a pest or weed control at 0.02 % strength [3] of over 70% and a pest or weed control at 0.02 % strength (Septoria nodorum) of over 70%.
`CC1=NN(c2cc(-c3ccnc(Nc4cccc(Cl)c4)n3)ccn2)C(=O)C12CC2` [1.04/028, 5-{4-[2-(3-Chloro-phenylamino)-pyrimidin-4-yl]-pyridin-2-yl}-7-methyl-5,6-diaza-spiro[2.4]hept-6-en-4-one] gave a pest or weed control at 0.02 % strength (Botrytis cinerea [1]) of over 70%, a pest or weed control at 0.02 % strength (Botrytis cinerea [2]) of over 70% and a pest or weed control at 0.02 % strength [3] of over 70%.
`CC1=NN(c2cc(-c3ccnc(Nc4cccc(Cl)c4)n3)ccn2)C(=S)C1(C)C` [1.06/028, 2-{4-[2-(3-Chloro-phenylamino)-pyrimidin-4-yl]-pyridin-2-yl}-4,4,5-trimethyl-2,4-dihydro-pyrazole-3-thione] was tested, and the pest or weed control at 0.02 % strength (Botrytis cinerea [1]) was over 70%, the pest or weed control at 0.02 % strength (Botrytis cinerea [2]) was over 70% and the pest or weed control at 0.02 % strength [3] was over 70%. The pest or weed control at 0.02 % strength (Septoria nodorum) was over 70%.
`CC1(C)C=NN(c2cc(-c3ccnc(Nc4cccc(Cl)c4)n3)ccn2)C1=O` [1.07/028, 2-{4-[2-(3-Chloro-phenylamino)-pyrimidin-4-yl]-pyridin-2-yl}-4,4-dimethyl-2,4-dihydro-pyrazol-3-one] gave a pest or weed control at 0.02 % strength (Botrytis cinerea [1]) of over 70%, a pest or weed control at 0.02 % strength [3] of over 70% and a pest or weed control at 0.02 % strength (Septoria nodorum) of over 70%.
Molecule `COCC1=NN(c2cc(-c3ccnc(Nc4cccc(Cl)c4)n3)ccn2)C(=O)C1(C)C` [1.08/028, 2-{4-[2-(3-Chloro-phenylamino)-pyrimidin-4-yl]-pyridin-2-yl}-5-methoxymethyl-4,4-dimethyl-2,4-dihydro-pyrazol-3-one] has a pest or weed control at 0.02 % strength [3] of over 70%.
With `Cc1c(C)n(C)n(-c2cc(-c3ccnc(Nc4cccc(Cl)c4)n3)ccn2)c1=O` [2.02/028, 2-{4-[2-(3-Chloro-phenylamino)-pyrimidin-4-yl]-pyridin-2-yl}-1,4,5-trimethyl-1,2-dihydro-pyrazol-3-one] the pest or weed control at 0.02 % strength (Botrytis cinerea [2]) was over 70%, the pest or weed control at 0.02 % strength [3] was over 70% and the pest or weed control at 0.02 % strength (Septoria nodorum) was over 70%.
`Cc1cc(=O)n(-c2cc(-c3ccnc(Nc4cccc(Cl)c4)n3)ccn2)n1C` [2.03/028, 2-{4-[2-(3-Chloro-phenylamino)-pyrimidin-4-yl]-pyridin-2-yl}-1,5-dimethyl-1,2-dihydro-pyrazol-3-one] showed a pest or weed control at 0.02 % strength (Botrytis cinerea [1]) of over 70%, a pest or weed control at 0.02 % strength [3] of over 70% and a pest or weed control at 0.02 % strength (Septoria nodorum) of over 70%.
`Cc1c(C=O)c(=O)n(-c2cc(-c3ccnc(Nc4cccc(Cl)c4)n3)ccn2)n1C` [2.04/028, 2-{4-[2-(3-Chloro-phenylamino)-pyrimidin-4-yl]-pyridin-2-yl}-1,5-dimethyl-3-oxo-2,3-dihydro-1H-pyrazole-4-carbaldehyde] was tested, and the pest or weed control at 0.02 % strength (Septoria nodorum) was over 70%.
Molecule `Cc1cn(C)n(-c2cc(-c3ccnc(Nc4cccc(Cl)c4)c3)ccn2)c1=O` [2.05/028, 2-{4-[2-(3-Chloro-phenylamino)-pyridin-4-yl]-pyridin-2-yl}-1,4-dimethyl-1,2-dihydro-pyrazol-3-one] has a pest or weed control at 0.02 % strength (Botrytis cinerea [1]) of over 70%, a pest or weed control at 0.02 % strength (Botrytis cinerea [2]) of over 70% and a pest or weed control at 0.02 % strength [3] of over 70%. The pest or weed control at 0.02 % strength (Septoria nodorum) was over 70%.
Work on `CCn1c(C)c(C)c(=O)n1-c1cc(-c2ccnc(Nc3cccc(Cl)c3)c2)ccn1` [2.06/028, 2-{4-[2-(3-Chloro-phenylamino)-pyridin-4-yl]-pyridin-2-yl}-1-ethyl-4,5-dimethyl-1,2-dihydro-pyrazol-3-one] yielded a pest or weed control at 0.02 % strength (Botrytis cinerea [2]) of over 70% and a pest or weed control at 0.02 % strength (Septoria nodorum) of over 70%.
`COCN(c1cccc(Cl)c1)c1nccc(-c2ccnc(-n3c(=O)cc(C)n3C)c2)n1` [2.08/048, 2-(4-{2-[(3-Chloro-phenyl)-methoxymethyl-amino]-pyrimidin-4-yl}-pyridin-2-yl)-1,5-dimethyl-1,2-dihydro-pyrazol-3-one] was tested, and the pest or weed control at 0.02 % strength (Botrytis cinerea [1]) was over 70%, the pest or weed control at 0.02 % strength (Botrytis cinerea [2]) was over 70% and the pest or weed control at 0.02 % strength [3] was over 70%.
`COCc1c(C)c(=O)n(-c2cc(-c3ccnc(Nc4cccc(Cl)c4)n3)ccn2)n1C` [2.09/028, 2-{4-[2-(3-Chloro-phenylamino)-pyrimidin-4-yl]-pyridin-2-yl}-5-methoxymethyl-1,4-dimethyl-1,2-dihydro-pyrazol-3-one] showed a pest or weed control at 0.02 % strength (Botrytis cinerea [1]) of over 70%, a pest or weed control at 0.02 % strength [3] of over 70% and a pest or weed control at 0.02 % strength (Septoria nodorum) of over 70%.
Work on `COCc1cc(=O)n(-c2cc(-c3ccnc(Nc4cccc(Cl)c4)n3)ccn2)n1C` [2.011/028, 2-{4-[2-(3-Chloro-phenylamino)-pyrimidin-4-yl]-pyridin-2-yl}-5-methoxymethyl-1-methyl-1,2-dihydro-pyrazol-3-one] yielded a pest or weed control at 0.02 % strength [3] of over 70%.
Molecule `COc1cc(C)nn1-c1cc(-c2ccnc(Nc3cccc(Cl)c3)n2)ccn1` [3.01/028, (3-Chloro-phenyl)-{4-[2-(5-methoxy-3-methyl-pyrazol-1-yl)-pyridin-4-yl]-pyrimidin-2-yl}-amine] has a pest or weed control at 0.02 % strength (Botrytis cinerea [2]) of over 70%, a pest or weed control at 0.02 % strength [3] of over 70% and a pest or weed control at 0.02 % strength (Septoria nodorum) of over 70%.
`COc1c(C)cnn1-c1cc(-c2ccnc(Nc3cccc(Cl)c3)n2)ccn1` [3.012/028, (3-Chloro-phenyl)-{4-[2-(5-methoxy-4-methyl-pyrazol-1-yl)-pyridin-4-yl]-pyrimidin-2-yl}-amine] showed a pest or weed control at 0.02 % strength (Botrytis cinerea [1]) of over 70%, a pest or weed control at 0.02 % strength [3] of over 70% and a pest or weed control at 0.02 % strength (Septoria nodorum) of over 70%.
With `COCc1nn(-c2cc(-c3ccnc(Nc4cccc(Cl)c4)n3)ccn2)c(OC)c1C` [3.013/028, (3-Chloro-phenyl)-{4-[2-(5-methoxy-3-methoxymethyl-4-methyl-pyrazol-1-yl)-pyridin-4-yl]-pyrimidin-2-yl}-amine] the pest or weed control at 0.02 % strength (Botrytis cinerea [1]) was over 70% and the pest or weed control at 0.02 % strength [3] was over 70%.
`COCc1cc(OC)n(-c2cc(-c3ccnc(Nc4cccc(Cl)c4)n3)ccn2)n1` [3.014/028, (3-Chloro-phenyl)-{4-[2-(5-methoxy-3-methoxymethyl-pyrazol-1-yl)-pyridin-4-yl]-pyrimidin-2-yl}-amine] showed a pest or weed control at 0.02 % strength (Botrytis cinerea [1]) of over 70% and a pest or weed control at 0.02 % strength [3] of over 70%.
In the case of `Cc1nn(-c2cc(-c3ccnc(Nc4cccc(Cl)c4)n3)ccn2)c(C)c1C` [3.017/028, (3-Chloro-phenyl)-{4-[2-(3,4,5-trimethyl-pyrazol-1-yl)-pyridin-4-yl]-pyrimidin-2-yl}-amine], the pest or weed control at 0.02 % strength [3] is reported as over 70%.
